Test results from ChEMBL document CHEMBL5154793, “Discovery of Thieno[2,3-d]pyrimidine-based KRAS G12D inhibitors as potential anticancer agents via combinatorial virtual screening” (Eur J Med Chem, 2022).
Calls of active or inactive are those of the source. No cut-off for these calls is given here.

Experiments:
SW1990 [1] = test: Induction of apoptosis in human SW1990 cells assessed as early apoptotic cells at 4 uM measured after 24 hrs by PI/Annexin V staining based flow cytometric analysis (reference value: 10.7%); format: functional
[2] = molecular target: GTPase KRas (Homo sapiens) (UniProt P01116); test: Inhibition of wild type KRAS (unknown origin) downstream signalling in human HCT-116 cells assessed as suppression of ERK phosphorylation incubated for 24 hrs by pull down based Western blotting analysis; format: cell-based; conditions: dose <= 8.0 µM, DDE = dose-dependent effect
CT26 [3] = test: Antitumor activity against mouse CT26 cells allografted in BALB/c mouse assessed as inhibition of tumor growth at 60 mg/kg, ip administered once a day for 10 days; format: functional; conditions: CT26, 240 h, time 10 day, read-out: TGI
[4] = Toxicity in BALB/c mouse allografted with mouse CT26 cells assessed as MPV level at 40 to 60 mg/kg, ip administered once a day for 10 days (reference value: 15 to 63 fL); format: organism-based; conditions: in vivo, 240 h, dose 40-60 mg/kg, time 10 day
[5] = Toxicity in BALB/c mouse allografted with mouse CT26 cells assessed as MCHC level at 40 to 60 mg/kg, ip administered once a day for 10 days (reference value: 338 to 361 g/L); format: organism-based; conditions: in vivo, 240 h, dose 40-60 mg/kg, time 10 day
CT26 [6] = test: In vivo inhibition of KRAS G12D mutant (unknown origin) mediated downstream signalling in mouse CT26 cells allografted in BALB/c mouse assessed as decrease in phosphorylation level of Raf in tumor tissue at 40 to 60 mg/kg, ip administered once a day for 10 days by Western blotting analysis; format: functional, organism-based; conditions: dose 40-60 mg/kg, time 10.0 day
CT26 [7] = test: Induction of apoptosis in mouse CT26 cells assessed as viable cells at 2 uM measured after 24 hrs by PI/Annexin V staining based flow cytometric analysis (reference value: 84.8%); format: functional; conditions: read-out: Activity
[8] = Toxicity in BALB/c mouse allografted with mouse CT26 cells assessed as effect on liver morphology at 40 to 60 mg/kg, ip administered once a day for 10 days by H and E staining based microscopic analysis; format: organism-based; conditions: in vivo, 240 h, dose 40-60 mg/kg, time 10 day
CT26 [9] = test: Induction of apoptosis in mouse CT26 cells assessed as viable cells at 8 uM measured after 24 hrs by PI/Annexin V staining based flow cytometric analysis (reference value: 84.8%); format: functional; conditions: read-out: Activity
SW1990 [10] = test: Induction of apoptosis in human SW1990 cells assessed as late apoptotic cells at 8 uM measured after 24 hrs by PI/Annexin V staining based flow cytometric analysis (reference value: 3.75%); format: functional
[11] = Toxicity in BALB/c mouse allografted with mouse CT26 cells assessed as effect on heart morphology at 40 to 60 mg/kg, ip administered once a day for 10 days by H and E staining based microscopic analysis; format: organism-based; conditions: in vivo, 240 h, dose 40-60 mg/kg, time 10 day
CT26 [12] = test: Induction of apoptosis in mouse CT26 cells assessed as late apoptotic cells at 8 uM measured after 24 hrs by PI/Annexin V staining based flow cytometric analysis (reference value: 3.21%); format: functional
CT26 [13] = test: Antitumor activity against mouse CT26 cells allografted in BALB/c mouse assessed as tumor volume at 40 mg/kg, ip administered once a day for 10 days; format: functional; conditions: time 10 day
CT26 [14] = test: Induction of apoptosis in mouse CT26 cells assessed as early apoptotic cells at 2 uM measured after 24 hrs by PI/Annexin V staining based flow cytometric analysis (reference value: 11.2%); format: functional
HCT-116 = test: Antiproliferative activity against human HCT-116 cells harboring KRAS G13D mutant assessed as inhibition of cell viability after 24 hrs by MTT assay; format: functional, cell-based; conditions: HCT-116, 24 h
CT26 [15] = test: Inhibition of KRAS G12D mutant (unknown origin) downstream signalling in mouse CT26 cells assessed as suppression of ERK phosphorylation incubated for 24 hrs by pull down based Western blotting analysis; format: cell-based; conditions: dose <= 16.0 µM, DDE = dose-dependent effect
SW1990 [16] = test: Induction of apoptosis in human SW1990 cells assessed as necrotic cells at 2 uM measured after 24 hrs by PI/Annexin V staining based flow cytometric analysis (reference value: 2.69%); format: functional
[17] = Toxicity in BALB/c mouse allografted with mouse CT26 cells assessed as monocyte level at 40 to 60 mg/kg, ip administered once a day for 10 days (reference value: 0.170 to 0.540 10^9/L); format: organism-based; conditions: in vivo, 240 h, dose 40-60 mg/kg, time 10 day
CT26 [18] = test: Induction of apoptosis in mouse CT26 cells assessed as early apoptotic cells at 8 uM measured after 24 hrs by PI/Annexin V staining based flow cytometric analysis (reference value: 11.2%); format: functional
SW1990 [19] = test: Induction of apoptosis in human SW1990 cells assessed as necrotic cells at 8 uM measured after 24 hrs by PI/Annexin V staining based flow cytometric analysis (reference value: 2.69%); format: functional
CT26 [20] = test: Induction of apoptosis in mouse CT26 cells assessed as necrotic cells at 2 uM measured after 24 hrs by PI/Annexin V staining based flow cytometric analysis (reference value: 0.789%); format: functional
CT26 [21] = test: Antitumor activity against mouse CT26 cells allografted in BALB/c mouse assessed as tumor volume at 60 mg/kg, ip administered once a day for 10 days; format: functional; conditions: time 10 day
CT26 [22] = test: Induction of apoptosis in mouse CT26 cells assessed as viable cells at 4 uM measured after 24 hrs by PI/Annexin V staining based flow cytometric analysis (reference value: 84.8%); format: functional; conditions: read-out: Activity
SW1990 [23] = test: Inhibition of GTP bound KRAS in human SW1990 cells assessed as down regulation of KRAS-GTP protein level incubated for 12 hrs by Pull-Down based Western blotting analysis; format: functional, cell-based; conditions: dose 10-20 µM, DDE = dose-dependent effect
GTPase KRas = GTPase KRas (Homo sapiens, UniProt P01116, G12D); test: Binding affinity to human his-tagged KRAS G12D mutant assessed as dissociation constant by isothermal titration calorimetry
CT26 [24] = test: Induction of apoptosis in mouse CT26 cells assessed as necrotic cells at 4 uM measured after 24 hrs by PI/Annexin V staining based flow cytometric analysis (reference value: 0.789%); format: functional
[25] = Toxicity in BALB/c mouse allografted with mouse CT26 cells assessed as body weight loss at 40 to 60 mg/kg, ip administered once a day for 10 days; format: organism-based; conditions: in vivo, 240 h, dose 40-60 mg/kg, time 10 day
[26] = Toxicity in BALB/c mouse allografted with mouse CT26 cells assessed as MCV level at 40 to 60 mg/kg, ip administered once a day for 10 days (reference value: 16 to 47 fL); format: organism-based; conditions: in vivo, 240 h, dose 40-60 mg/kg, time 10 day
CT26 [27] = test: Induction of apoptosis in mouse CT26 cells assessed as late apoptotic cells at 4 uM measured after 24 hrs by PI/Annexin V staining based flow cytometric analysis (reference value: 3.21%); format: functional
NCI-H358 = test: Antiproliferative activity against human NCI-H358 cells harboring KRAS G12C mutant assessed as inhibition of cell viability after 24 hrs by MTT assay; format: functional, cell-based; conditions: NCI-H358, 24 h
[28] = Toxicity in BALB/c mouse allografted with mouse CT26 cells assessed as neutrophil level at 40 to 60 mg/kg, ip administered once a day for 10 days (reference value: 1.080 to 1.250 10^9/L); format: organism-based; conditions: in vivo, 240 h, dose 40-60 mg/kg, time 10 day

Sequence of GTPase KRas (Homo sapiens) (P01116 whole entry, looked up): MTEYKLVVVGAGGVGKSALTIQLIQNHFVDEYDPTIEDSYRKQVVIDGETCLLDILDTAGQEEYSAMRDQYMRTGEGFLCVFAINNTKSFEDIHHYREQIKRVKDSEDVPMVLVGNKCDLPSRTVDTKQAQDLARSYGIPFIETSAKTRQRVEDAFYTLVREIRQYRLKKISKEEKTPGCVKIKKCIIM
Sequence of GTPase KRas (P01116 whole entry G12D): as the sequence (P01116 whole entry, looked up) above, with G12D counted along it

Q: Which results are given for `COc1ccc(C(F)(F)F)cc1-c1cc2c(N3CC4CCC(C3)N4)ncnc2s1`?
A: Activity (SW1990 [1]): 14.2%; Activity [2]: Dde; inhibition in vivo at 60 mg/kg (CT26 [3]): 53%; Activity [4]: 6.2 fL; Activity [5]: 336 g/L; Activity (CT26 [6]): Active; viability at 2 µM (CT26 [7]): 78.6%; Activity [8]: Non-Toxic; viability at 8 µM (CT26 [9]): 8.57%; Activity (SW1990 [10]): 56.9%; Activity [11]: Non-Toxic; Activity (CT26 [12]): 60.4%; Activity (CT26 [13]): 17%; Activity (CT26 [14]): 15.4%; IC50 (HCT-116): 4.7 µM; Activity (CT26 [15]): Dde; Activity (SW1990 [16]): 3.11%; Activity [17]: 0.15 10^9/L; Activity (CT26 [18]): 24.4%; Activity (SW1990 [19]): 1.81%; Activity (CT26 [20]): 1.39%; Activity (CT26 [21]): 11%; viability at 4 µM (CT26 [22]): 38.8%; inhibition (SW1990 [23]): Dde; Kd (GTPase KRas): 0.033 µM; Activity (CT26 [24]): 3.87%; Activity [25]: Non-Toxic; Activity [26]: 16.1 fL; Activity (CT26 [27]): 20.9%; IC50 (NCI-H358): 4.5 µM; Activity [28]: 1.92 10^9/L
